What was measured:
[1] = Cytotoxicity against human SNB19 cells assessed as cell growth at 10^-5 M after 48 hrs by SRB assay; format: functional; conditions: SNB-19, 48 h, read-out: Activity
[2] = Cytotoxicity against human HL-60(TB) cells assessed as cell growth at 10^-4 M after 48 hrs by SRB assay; format: functional; conditions: HL-60, 48 h, read-out: Activity
SR = experiment: Cytotoxicity against human SR cells assessed as cell growth at 10^-5 M after 48 hrs by SRB assay; format: functional; conditions: read-out: Activity
[3] = Cytotoxicity against human TK10 cells assessed as cell growth at 10^-6 M after 48 hrs by SRB assay; format: functional; conditions: TK-10, 48 h, read-out: Activity
Malme-3M = experiment: Cytotoxicity against human MALME-3M cells assessed as cell growth at 10^-7 M after 48 hrs by SRB assay; format: functional; conditions: read-out: Activity
NCI-H460 = experiment: Cytotoxicity against human NCI-H460 cells assessed as cell growth at 10^-6 M after 48 hrs by SRB assay; format: functional; conditions: NCI-H460, 48 h, read-out: Activity
[4] = Cytotoxicity against human NCI-ADR-RES cells assessed as cell growth at 10^-4 M after 48 hrs by SRB assay; format: functional; conditions: read-out: Activity
MDA-MB-435 = experiment: Cytotoxicity against human MDA-MB-435 cells assessed as cell growth at 10^-8 M after 48 hrs by SRB assay; format: functional; conditions: MDA-MB-435, 48 h, read-out: Activity
A549 = experiment: Cytotoxicity against human A549 cells assessed as cell growth at 10^-4 M after 48 hrs by SRB assay; format: functional; conditions: A549, 48 h, read-out: Activity
SK-MEL-28 [5] = experiment: Cytotoxicity against human SK-MEL-28 cells assessed as cell growth at 10^-8 M after 48 hrs by SRB assay; format: functional; conditions: SK-MEL-28, 48 h, read-out: Activity
[6] = Cytotoxicity against human UO31 cells assessed as cell growth at 10^-7 M after 48 hrs by SRB assay; format: functional; conditions: UO-31, 48 h, read-out: Activity
MDA-MB-468 [7] = experiment: Cytotoxicity against human MDA-MB-468 cells assessed as cell growth at 10^-5 M after 48 hrs by SRB assay; format: functional; conditions: MDA-MB-468, 48 h, read-out: Activity
[8] = Cytotoxicity against human HOP62 cells assessed as cell growth at 10^-5 M after 48 hrs by SRB assay; format: functional; conditions: HOP-62, 48 h, read-out: Activity
NCI-H322M = experiment: Cytotoxicity against human NCI-H322M cells assessed as cell growth at 10^-6 M after 48 hrs by SRB assay; format: functional; conditions: read-out: Activity
U-251 [9] = experiment: Cytotoxicity against human U251 cells assessed as cell growth at 10^-6 M after 48 hrs by SRB assay; format: functional; conditions: U-251, 48 h, read-out: Activity
[10] = Cytotoxicity against human NCI-ADR-RES cells assessed as cell growth at 10^-7 M after 48 hrs by SRB assay; format: functional; conditions: read-out: Activity
T47D = experiment: Cytotoxicity against human T47D cells assessed as cell growth at 10^-8 M after 48 hrs by SRB assay; format: functional; conditions: read-out: Activity
U-251 [11] = experiment: Cytotoxicity against human U251 cells assessed as cell growth at 10^-4 M after 48 hrs by SRB assay; format: functional; conditions: U-251, 48 h, read-out: Activity
MCF7 [12] = experiment: Cytotoxicity against human MCF7 cells assessed as cell growth at 10^-6 M after 48 hrs by SRB assay; format: functional; conditions: MCF7, 48 h, read-out: Activity
[13] = Cytotoxicity against human SF295 cells assessed as cell growth at 10^-4 M after 48 hrs by SRB assay; format: functional; conditions: SF-295, 48 h, read-out: Activity
KM12 = experiment: Cytotoxicity against human KM12 cells assessed as cell growth at 10^-8 M after 48 hrs by SRB assay; format: functional; conditions: KM12, 48 h, read-out: Activity
[14] = Cytotoxicity against human TK10 cells assessed as cell growth at 10^-4 M after 48 hrs by SRB assay; format: functional; conditions: TK-10, 48 h, read-out: Activity
NCI-H226 = experiment: Cytotoxicity against human NCI-H226 cells assessed as cell growth at 50 uM after 48 hrs by SRB assay; format: functional; conditions: NCI-H226, 48 h, read-out: Activity
SK-MEL-28 [15] = experiment: Cytotoxicity against human SK-MEL-28 cells assessed as cell growth at 5 nM after 48 hrs by SRB assay; format: functional; conditions: SK-MEL-28, 48 h, read-out: Activity
786-0 = experiment: Cytotoxicity against human 786-0 cells assessed as cell growth at 50 uM after 48 hrs by SRB assay; format: functional; conditions: 786-0, 48 h, read-out: Activity
[16] = Metabolic stability in human liver microsomes assessed as remaining parent compound level at 10 uM after 3 hrs in presence of NAPDH by LC/MS analysis; format: ADME; conditions: read-out: Drug metabolism
[17] = Cytotoxicity against human SF268 cells assessed as cell growth at 50 nM after 48 hrs by SRB assay; format: functional; conditions: SF-268, 48 h, read-out: Activity
[18] = Cytotoxicity against human PC3 cells assessed as cell growth at 50 uM after 48 hrs by SRB assay; format: functional; conditions: PC-3, 48 h, read-out: Activity
ACHN = experiment: Cytotoxicity against human ACHN cells assessed as cell growth at 50 uM after 48 hrs by SRB assay; format: functional; conditions: read-out: Activity
[19] = Cytotoxicity against human UO31 cells assessed as cell growth at 50 nM after 48 hrs by SRB assay; format: functional; conditions: UO-31, 48 h, read-out: Activity
[20] = Cytotoxicity against human RPMI8226 cells assessed as cell growth at 5 nM after 48 hrs by SRB assay; format: functional; conditions: RPMI-8226, 48 h, read-out: Activity
[21] = Cytotoxicity against human TK10 cells assessed as cell growth at 0.5 uM after 48 hrs by SRB assay; format: functional; conditions: TK-10, 48 h, read-out: Activity
A498 = experiment: Cytotoxicity against human A498 cells assessed as cell growth at 5 nM after 48 hrs by SRB assay; format: functional; conditions: A498, 48 h, read-out: Activity
NCI-H23 [22] = experiment: Cytotoxicity against human NCI-H23 cells assessed as cell growth at 5 uM after 48 hrs by SRB assay; format: functional; conditions: NCI-H23, 48 h, read-out: Activity
[23] = Cytotoxicity against human LOXIMVI cells assessed as cell growth at 50 nM after 48 hrs by SRB assay; format: functional; conditions: LOX IMVI, read-out: Activity
NCI-H23 [24] = experiment: Cytotoxicity against human NCI-H23 cells assessed as cell growth at 50 nM after 48 hrs by SRB assay; format: functional; conditions: NCI-H23, 48 h, read-out: Activity
[25] = Cytotoxicity against human UO31 cells assessed as cell growth at 50 uM after 48 hrs by SRB assay; format: functional; conditions: UO-31, 48 h, read-out: Activity
[26] = Cytotoxicity against human SF295 cells assessed as cell growth at 50 uM after 48 hrs by SRB assay; format: functional; conditions: SF-295, 48 h, read-out: Activity
[27] = Cytotoxicity against human PC3 cells assessed as cell growth at 5 uM after 48 hrs by SRB assay; format: functional; conditions: PC-3, 48 h, read-out: Activity
MDA-MB-468 [28] = experiment: Cytotoxicity against human MDA-MB-468 cells assessed as cell growth at 50 uM after 48 hrs by SRB assay; format: functional; conditions: MDA-MB-468, 48 h, read-out: Activity
MCF7 [29] = experiment: Cytotoxicity against human MCF7 cells assessed as cell growth at 0.5 uM after 48 hrs by SRB assay; format: functional; conditions: MCF7, 48 h, read-out: Activity
[30] = Cytotoxicity against human MOLT4 cells assessed as cell growth at 0.5 uM after 48 hrs by SRB assay; format: functional; conditions: MOLT-4, 48 h, read-out: Activity

Work on `C/C(=C(/c1ccc(O)cc1)c1ccc(OCCN2CCCC2)cc1)c1ccccc1` yielded a growth at 10 µM [1] of -10%, a growth at 100 µM [2] of -69% and a growth at 10 µM (SR) of -25%. It also gave a growth at 1 µM [3] of 95%, a growth at 0.1 µM (Malme-3M) of 91% and a growth at 1 µM (NCI-H460) of 102%. The growth at 100 µM [4] was -70%, the growth at 0.01 µM (MDA-MB-435) was 93% and the growth at 100 µM (A549) was -96%. The growth at 0.01 µM (SK-MEL-28 [5]) was 90%, the growth at 0.1 µM [6] was 90% and the growth at 10 µM (MDA-MB-468 [7]) was -45%. For the same molecule, the growth at 10 µM [8] was -51%, the growth at 1 µM (NCI-H322M) was 90% and the growth at 1 µM (U-251 [9]) was 95%. For the same molecule, the growth at 0.1 µM [10] was 97%, the growth at 0.01 µM (T47D) was 62% and the growth at 100 µM (U-251 [11]) was -98%. For the same molecule, the growth at 1 µM (MCF7 [12]) was 36%, the growth at 100 µM [13] was -95% and the growth at 0.01 µM (KM12) was 102%. It also gave a growth at 100 µM [14] of -100%.

For `CCCCCCCCCC(=O)Oc1ccc(/C(=C(/C)c2ccccc2)c2ccc(OCCN3CCCC3)cc2)cc1`, the growth at 50 µM (NCI-H226) was -74%, the growth at 0.005 µM (SK-MEL-28 [15]) was 104% and the growth at 50 µM (786-0) was -84%. For the same molecule, the remaining at 3 h, 10 µM [16] was 63%, the growth at 0.05 µM [17] was 97% and the growth at 50 µM [18] was -90%. It also gave a growth at 50 µM (ACHN) of -92%, a growth at 0.05 µM [19] of 89% and a growth at 0.005 µM [20] of 99%. The growth at 0.5 µM [21] was 90%, the growth at 0.005 µM (A498) was 61% and the growth at 5 µM (NCI-H23 [22]) was 80%. For the same molecule, the growth at 0.05 µM [23] was 97%, the growth at 0.05 µM (NCI-H23 [24]) was 96% and the growth at 50 µM [25] was -85%. The growth at 50 µM [26] was -94%, the growth at 5 µM [27] was 89% and the growth at 50 µM (MDA-MB-468 [28]) was -87%. For the same molecule, the growth at 0.5 µM (MCF7 [29]) was 29% and the growth at 0.5 µM [30] was 63%.

Source: ChEMBL document CHEMBL3774317, “Design and synthesis of novel tamoxifen analogues that avoid CYP2D6 metabolism” (Eur J Med Chem, 2016)
